The structures appear in SMILES notation. Where “and” joins values, the source holds several entries; their conditions need not be identical. Identical values can stand only once. Some results are limits rather than exact numbers.

This assay relates to 439559-082-T-J2-PDC spheroid viability. Put plainly: Anticancer human tumor 439559-082-T-J2-PDC patient-derived colon adenocarcinoma cell line growth inhibition [POLQ]. The note with it: spheroids with HUVEC and MSC; for viability, T/C: stronger effect = lower value; for IC50: curve of compound. In a few lines:
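PDC + HUVEC + MSC complex spheroids; POLQ inhibitors ± partner drugs; top conc. at/near clinical Cmax, else 10 microM (SN-38 1 microM), half-log dilutions; 37 degrees C, 5% CO2.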
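Also: spheroids exposed to compounds for seven days before readout.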
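For viability, T/C in this document: 100% = DMSO vehicle control viability.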

For the compound `CCCS(=O)(=O)Nc1ccc(F)c(C(=O)c2c[nH]c3ncc(-c4ccc(Cl)cc4)cc23)c1F`, the 50% inhibitory concentration (IC50) – broadly, the midpoint of a concentration-inhibition curve – was > 10000 nM and 7740 nM. Further, the viability, T/C – broadly, the ratio of treated to control – (compound 0.0316 µM) is 97.4% and 77.9% and 99.4%. For the same compound, the viability, T/C (compound 0.316 µM) is 102% and 105% and 90%. In addition, the viability, T/C (compound 1 µM) was 103% and 87.8% and 100%.
Turning to `C=CC(=O)N1CCN(c2nc(=O)n(-c3c(C)ccnc3C(C)C)c3nc(-c4c(O)cccc4F)c(F)cc23)C(C)C1` (configuration not stated), the IC50 is more than 10000 nM. Besides, where the note is “compound 0.0316 µM”, the viability, T/C is 93% and 88.6% and 99.7%. Moreover, the viability, T/C (compound 0.1 µM) was 91.5% and 84.4% and 100%. The viability, T/C (compound 0.316 µM) is 95.6% and 90.7% and 99.1%. The viability, T/C (compound 1 µM) was 96.8% and 92.5% and 105%. The viability, T/C (compound 3.16 µM) is 97.7% and 80.5% and 99.9%. Further, the viability, T/C (compound 10 µM) is 98.6% and 103% and 108%.
As to `C=CCn1c(=O)c2cnc(Nc3ccc(N4CCN(C)CC4)cc3)nc2n1-c1cccc(C(C)(C)O)n1`, the concentration for half-maximal inhibition (IC50) was more than 1000 nM. Also, the viability, T/C (compound 0.00316 µM) was 97.3% and 99% and 101%. Further, the viability, T/C (compound 0.01 µM) was 93.6% and 96.3% and 96.2%. For the same compound, the viability, T/C (compound 0.0316 µM) was 98.5% and 99.2% and 89.3%. Besides, the viability, T/C (compound 0.1 µM) was 97.7% and 104% and 90.1%. In addition, under “compound 0.316 µM”, the viability, T/C was 99.3% and 97.5% and 91.7%. Further, where the note is “compound 1 µM”, the viability, T/C is 81.2% (2×) and 83.4%.
Turning to `CC(C)n1c(=O)n(C)c2cnc3cc(F)c(-c4ccc(OCCCN5CCCCC5)nc4)cc3c21`, the half-maximal inhibitory concentration (IC50) is more than 10000 nM. For the same compound, the viability, T/C (compound 3.16 µM) is 116% and 127% and 102%.
With `COc1cc(C2c3cc4c(cc3C(OC3OC5COC(C)OC5C(O)C3O)C3COC(=O)C23)OCO4)cc(OC)c1O` (configuration not stated), the half-inhibitory concentration (IC50) was more than 10000 nM. For the setting “compound 0.0316 µM”, the viability, T/C was 92.4% and 99.3% and 94.1%. Under “compound 0.1 µM”, the viability, T/C is 95.6% and 95.3% and 97.8%. Besides, under “compound 0.316 µM”, the viability, T/C was 92.7% and 82% and 98.2%. For the same compound, the viability, T/C (compound 1 µM) is 90.5% and 88.4% and 95.4%. Moreover, under “compound 3.16 µM”, the viability, T/C was 82.1% and 81.8% and 89.5%. The viability, T/C (compound 10 µM) is 73.7% and 72.7% and 70.3%.
With `CC(=O)O[C@H]1C(=O)[C@@]2(C)[C@H]([C@H](OC(=O)c3ccccc3)[C@]3(O)C[C@H](OC(=O)[C@H](O)[C@@H](NC(=O)c4ccccc4)c4ccccc4)C(C)=C1C3(C)C)[C@]1(OC(C)=O)CO[C@@H]1C[C@@H]2O`, the IC50 is 2240 nM and 1180 nM and 1440 nM. Moreover, the viability, T/C (compound 0.0949 µM) is 83% and 81.7% and 82.3%. In addition, the viability, T/C (compound 0.3 µM) was 77.9% and 70.6% and 74.8%. The viability, T/C (compound 0.949 µM) was 68.7% and 51.8% and 55.5%. The viability, T/C (compound 3 µM) is 43.4% and 22.5% and 40.4%.

(Values after PubChem BioAssay AID1963841 (Molecular Pharmacology Branch, DTP, NCI, 2024).)
